T/C data for 14 compounds are collected here from PubChem BioAssay AID316 (DTP/NCI, 2004).

For this test, the system named is P1534 leukemia ip, CD2F1 mice, survival T/C. The experiment in a line: NCI In Vivo Anticancer Drug Screen. Data for tumor model P1534 Leukemia (intraperitoneal) in CD2F1 (CDF1) mice. Conditions: endpoint: mean survival time, higher = longer survival. The procedure: The antitumor activity of compounds was measured in mice bearing transplantable tumors. Survival or tumor size were measured and the results are expressed as the measurement made in the treated group (T) divided by the measurement made in the vehicle treated control group (C). The tumor model used in this assay is P1534 Leukemia (intraperitoneal) in CD2F1 (CDF1) mice

Setting [1] is: dose: 2.5 mg/kg/injection, schedule: Q01DX010 (ip), vehicle: saline.
The mark [2] stands for this setting: dose: 20.0 mg/kg/injection, schedule: Q01DX010 (ip), vehicle: saline.

Molecules are shown by their SMILES. Where “and” joins values, the source holds several entries; their conditions need not be identical. Equal values may be shown once. Inconclusive results and toxic doses are left out.

Take `COc1cc2c(c(OC)c1OC)-c1ccc(OC)c(=O)cc1[C@@H](NC(C)=O)CC2`: the T/C is 100 % of control (dose: 0.04 mg/kg/injection, schedule: Q01DX010 (ip), vehicle: saline); 123 % of control (dose: 0.05 mg/kg/injection, schedule: Q01DX010 (ip), vehicle: saline); 100 % of control (dose: 0.06 mg/kg/injection, schedule: Q01DX010 (ip), vehicle: saline); 188 % of control (dose: 0.12 mg/kg/injection, schedule: Q01DX010 (ip), vehicle: saline); 213 % of control (dose: 0.18 mg/kg/injection, schedule: Q01DX010 (ip), vehicle: saline); 161 % of control (dose: 0.2 mg/kg/injection, schedule: Q01DX015 (ip), vehicle: saline). Moreover, the T/C by setting is: (dose: 0.2 mg/kg/injection, schedule: Q02DX008 (ip), vehicle: saline) 174 % of control; (dose: 0.27 mg/kg/injection, schedule: Q01DX010 (ip), vehicle: saline) 253 % of control; (dose: 0.3 mg/kg/injection, schedule: Q01DX015 (ip), vehicle: saline) 212 % of control; (dose: 0.3 mg/kg/injection, schedule: Q02DX008 (ip), vehicle: saline) 159 % of control; (dose: 0.45 mg/kg/injection, schedule: Q01DX015 (ip), vehicle: saline) 257 % of control; (dose: 0.45 mg/kg/injection, schedule: Q02DX008 (ip), vehicle: saline) 261 % of control. Besides, the T/C is 318 % of control (dose: 0.67 mg/kg/injection, schedule: Q02DX008 (ip), vehicle: saline); 348 % of control (dose: 0.9 mg/kg/injection, schedule: Q## X004 (ip), vehicle: saline); 304 % of control (dose: 1.0 mg/kg/injection, schedule: Q02DX008 (ip), vehicle: saline); 242 % of control (dose: 1.0 mg/kg/injection, schedule: Q## X032 (ip), vehicle: saline); 255 % of control (dose: 1.1 mg/kg/injection, schedule: Q01DX001 (ip), vehicle: saline); 328 % of control (dose: 1.3 mg/kg/injection, schedule: Q## X004 (ip), vehicle: saline). Further, the T/C by setting is: (dose: 1.6 mg/kg/injection, schedule: Q## X032 (ip), vehicle: saline) 352 % of control; (dose: 1.7 mg/kg/injection, schedule: Q01DX001 (ip), vehicle: saline) 208 % of control; (dose: 2.4 mg/kg/injection, schedule: Q## X032 (ip), vehicle: saline) 240 % of control; (dose: 2.5 mg/kg/injection, schedule: Q01DX001 (ip), vehicle: saline) 241 % of control.
Regarding `COc1ccc(/C=N/NC(N)=S)cc1`, the T/C is 100 % of control (dose: 32.0 mg/kg/injection, schedule: Q01DX010 (ip), vehicle: saline); 100 % of control (dose: 64.0 mg/kg/injection, schedule: Q01DX010 (ip), vehicle: saline); 100 % of control (dose: 128.0 mg/kg/injection, schedule: Q01DX010 (ip), vehicle: saline); 106 % of control (dose: 256.0 mg/kg/injection, schedule: Q01DX010 (ip), vehicle: saline).
As for `c1ccc(CCSc2ncnc3nc[nH]c23)cc1`, the T/C is, setting by setting: (dose: 125.0 mg/kg/injection, schedule: Q01DX010 (ip), vehicle: saline) 100 % of control; (dose: 500.0 mg/kg/injection, schedule: Q01DX010 (ip), vehicle: saline) 103 % of control.
On to `CCC1=CC2CN3CCc4c([nH]c5ccccc45)C(C(=O)OC)(C2)C13` (stereo not given), for which the T/C by setting is: under setting [1], 117 % of control; (dose: 5.0 mg/kg/injection, schedule: Q01DX010 (ip), vehicle: saline) 103 % of control; (dose: 10.0 mg/kg/injection, schedule: Q01DX010 (ip), vehicle: saline) 100 % of control; under setting [2], 92 % of control.
Take `COc1cc2c3c(c4ccc(O)cc4c2cc1OC)[C@@H](O)[C@@H]1CCCN1C3`: the T/C (dose: 2.5 mg/kg/injection, schedule: Q01DX009 (ip), vehicle: water) is 98 % of control; the T/C (dose: 5.0 mg/kg/injection, schedule: Q01DX009 (ip), vehicle: water) is 113 % of control; the T/C (dose: 15.0 mg/kg/injection, schedule: Q01DX009 (ip), vehicle: water) is 110 % of control; the T/C (dose: 20.0 mg/kg/injection, schedule: Q01DX009 (ip), vehicle: water) is 163 % of control; the T/C (dose: 20.0 mg/kg/injection, schedule: Q01DX010 (ip), vehicle: water) is 113 % of control; the T/C (dose: 30.0 mg/kg/injection, schedule: Q01DX010 (ip), vehicle: water) was 86 % of control.
As for `CCN(CC)CCNc1ccc(C)c2sc3ccccc3c(=O)c12`, the T/C is 103 % of control under setting [2]; 103 % of control (dose: 40.0 mg/kg/injection, schedule: Q01DX010 (ip), vehicle: saline); 107 % of control (dose: 80.0 mg/kg/injection, schedule: Q01DX010 (ip), vehicle: saline).
`CC(=O)NC1=C(N2CC2)C(=O)C(NC(C)=O)=C(N2CC2)C1=O`: the T/C (dose: 31.3 micrograms/kg/injection, schedule: Q01DX010 (ip), vehicle: saline) is 107 % of control and the T/C (dose: 62.5 micrograms/kg/injection, schedule: Q01DX010 (ip), vehicle: saline) was 110 % of control.
For the compound `Cc1cc(N(CCCl)CCCl)ccc1C=Nc1ccccc1-c1ccccc1`, the T/C was 100 % of control (dose: 25.0 mg/kg/injection, schedule: Q01DX010 (ip), vehicle: saline); 100 % of control (dose: 50.0 mg/kg/injection, schedule: Q01DX010 (ip), vehicle: saline); 100 % of control (dose: 100.0 mg/kg/injection, schedule: Q01DX010 (ip), vehicle: saline).
`O=C(O)c1cc(C(=O)O)[nH]n1`: the T/C (dose: 100.0 mg/kg/injection, schedule: Q01DX010 (ip), vehicle: water) is 103 % of control and the T/C (dose: 150.0 mg/kg/injection, schedule: Q01DX010 (ip), vehicle: water) is 103 % of control.
`CC(=O)[C@@]1(O)CC[C@H]2[C@@H]3C[C@H](C)C4=CC(=O)C=C[C@]4(C)[C@@]3(F)[C@@H](O)C[C@@]21C`: the T/C by setting is: (dose: 12.5 mg/kg/injection, schedule: Q01DX010 (sc), vehicle: steriod suspending solution) 107 % of control; (dose: 25.0 mg/kg/injection, schedule: Q01DX010 (sc), vehicle: steriod suspending solution) 107 % of control; (dose: 50.0 mg/kg/injection, schedule: Q01DX010 (sc), vehicle: steriod suspending solution) 107 % of control; (dose: 100.0 mg/kg/injection, schedule: Q01DX010 (sc), vehicle: steriod suspending solution) 100 % of control.
Turning to `CCC(CCC(C)C1CCC2C3CC=C4CC(O)CCC4(C)C3CCC12C)C(C)C` (stereo not given) (tested in a mixture with another compound), the T/C (dose: 12.0 mg/kg/injection, schedule: Q01DX010 (ip), vehicle: water) was 102 % of control; the T/C (dose: 25.0 mg/kg/injection, schedule: Q01DX010 (ip), vehicle: water) was 109 % of control; the T/C (dose: 25.0 mg/kg/injection, schedule: Q#A X020 (ip), vehicle: other) was 87 % of control; the T/C (dose: 50.0 mg/kg/injection, schedule: Q01DX010 (ip), vehicle: water) is 93 % of control.
Regarding `CC(=O)OC(C)(C)/C=C/C(=O)[C@](C)(O)[C@H]1[C@H](O)C[C@@]2(C)[C@@H]3CC=C4[C@@H](C[C@H](O)C(=O)C4(C)C)[C@]3(CO)C(=O)C[C@]12C`, the T/C runs as follows: (dose: 0.16 mg/kg/injection, schedule: Q01DX010 (ip), vehicle: saline) 103 % of control; (dose: 0.25 mg/kg/injection, schedule: Q01DX010 (ip), vehicle: saline) 107 % of control; (dose: 0.57 mg/kg/injection, schedule: Q01DX010 (ip), vehicle: saline) 103 % of control.
On to `N[C@@H](Cc1ccc(N(CCCl)CCCl)cc1)C(=O)O`, for which the T/C (dose: 1.25 mg/kg/injection, schedule: Q01DX010 (ip), vehicle: saline) was 164 % of control and the T/C under setting [1] was 189 % of control.
Regarding `Clc1ncnc2nc[nH]c12`, the T/C was 106 % of control and 100 % of control (dose: 7.5 mg/kg/injection, schedule: Q01DX010 (ip), vehicle: saline); 94 % of control (dose: 15.0 mg/kg/injection, schedule: Q01DX010 (ip), vehicle: saline); 105 % of control (dose: 30.0 mg/kg/injection, schedule: Q01DX010 (ip), vehicle: saline); 105 % of control (dose: 60.0 mg/kg/injection, schedule: Q01DX010 (ip), vehicle: saline).
